The results in this text go back to US8946478B2, “Benzamide derivative with anticancer activity and preparation method and use thereof” (Zhejiang Hisun Pharmaceutical Co., Ltd., priority 2010, dated 2015).

For assay [1], the system named is human breast cancer cell strain MDA-MB435. Nature of the assay: In vitro SRB tumor cell growth inhibition (GI50). Type of assay: cell-based. The settings on record: Homo sapiens, MDA-MB-435, 48 h, MDA-MB435 cells. The protocol: (§1) Human colon cancer cell strains (Colo205 and HCT-116), human breast cancer cell strains (MCF-7 and MDA-MB435), human lung cancer cell strains (A549, 95D and NCI460), human ovarian cancer cell strains (OVCAR-5, OVCAR-8, HO8910 and SKOV-3), human leukemia (HL-60 and K562), human prostate cancer (DU145 and BXPC-3), human uterine cancer (Hela), human pancreatic cancer (PANC-1), human hepatoma (HepG 2) were all obtained from ATCC. Colo205, HL-60, K562 cells were cultured in RPMI 1640 containing 2 mM/L glutamine, 10% FBS, 1.0 mM sodium pyruvate. HCT-116, MCF-7, A549, 95D, HO8910, NCI460, OVCAR-5, OVCAR-8, DU145, BXPC-3, Hela, PANC-1, HepG2 cells were cultured in DMEM containing 2 mM/L glutamine, 10% FBS. MDA-MB435 cells were cultured in L-15 containing 2 mM/L glutamine, 10% FBS. SKOV-3 cells were cultured in McCoy's containing 2 mM/L glutamine, 10% FBS. Colo205, HL-60 and K562 cells were seeded in 96-well plates, 150 μL/well and 8000 cells/well, and the 96-well plates were pre-incubated in an incubator at 37° C. with 5% CO2, 100% relative humidity for 24 hours. HCT-116, MCF-7, NCI460, OVCAR-5, OVCAR-8, Hela, HepG 2 and MDA-MB435 cells were seeded in 96-well plates, 5000 cells/well; A549, 95D, HO8910, DU145, BXPC-3, PANC-1 and SKOV-3 cells were seeded in 96-well plates, 10000 cells/well, and the 96-well plates were pre-incubated in an incubator at 37° C. with 5% CO2, 100% relative humidity for 24 hours, to allow the cells to adhere.
(§2) 50 μL of pre-cooled 50% (mass/volume) TCA was added into the time zero control wells for each cell strain to fix the cells. To other wells, 50 μL of various concentrations of compounds were added, and maintained for 48 h, wherein each drug concentration was in triplicate, and there were blank control wells (cell culture medium without cells), drug-free control wells (with no drugs but the same volume of complete medium) and positive drug BSI-201 control wells, and the plates were incubated in an incubator at 37° C. with 5% CO2, full humidity (100% relative humidity) for 48 hours
(§3) 50 μL pre-cooled 50% (mass/volume) TCA was added onto the surface of the culture medium to fix the cells, which was then placed at 4° C. for 1 h. The supernatant was removed and each well was washed with deionized water for 5 times to remove TCA, serum proteins, etc. After dried in the air, about 100 μL enough amount of 0.4% SRB (formulated with 1% acetic acid) was added into each well, and was placed at room temperature for 20 to 30 min. Liquid in each well was discarded and each well was rapidly washed with 1% acetic acid for five times, to remove unbound dye until the unbound dye was completely rinsed clean. After dried in the air until the moisture was invisible, each well was added 200 μL Tris base to dissolve, shaken on a plate oscillator for 5 min or mixed by beating up and down with a pipette tip, and then measured on the multi-function instruction (M5 Detection System, MD Group Ltd.) with a detection wavelength of 515 nm, zero adjusted with 690 nm blank control.
(§4) The dose-response curve was plotted by XL-fit to determine the GI50 value.

Assay [2] has as its system human breast cancer cell strain MCF-7. Nature of the assay: In vitro SRB tumor cell growth inhibition (GI50). Type of assay: cell-based. The settings on record: Homo sapiens, MCF7, 48 h, MCF-7 cells. The protocol: as §1, §2, §3, §4
For a further assay, the system named is 18 tumor cell strains. Put plainly: In vitro efficacy screening, summary over the tumor cell strains. The settings on record: in vitro screening; for inhibitory effects on tumor cell proliferation (in words): BSI-201 as positive drug. Type of assay: cell-based, human. The protocol: as §1, §2, §3, §4
Assay [3] has as its system human colon cancer cell strain HCT-116. Put plainly: In vitro SRB tumor cell growth inhibition (GI50). Type of assay: cell-based. The settings on record: Homo sapiens, HCT-116, 48 h, HCT-116 cells. The protocol:
as §1, §2, §3, §4

The test system of the next assay is human leukemia HL-60. Nature of the assay: In vitro SRB tumor cell growth inhibition (GI50). Type of assay: cell-based. The settings on record: Homo sapiens, HL-60, 48 h, HL-60 cells. The protocol: as §1, §2, §3, §4
Assay [4] deals with human lung cancer cell strain NCI-460. Nature of the assay: In vitro SRB tumor cell growth inhibition (GI50). Type of assay: cell-based. The settings on record: Homo sapiens, NCI-460, 48 h, NCI-460 cells. The protocol:
as §1, §2, §3, §4

Assay [5] deals with human lung cancer cell strain 95D. Put plainly: In vitro SRB tumor cell growth inhibition (GI50). Type of assay: cell-based. The settings on record: Homo sapiens, 95-D, 48 h, 95D cells. The protocol:
as §1, §2, §3, §4

Assay [6] deals with human ovarian cancer cell strain OVCAR-8. Put plainly: In vitro SRB tumor cell growth inhibition (GI50). Type of assay: cell-based. The settings on record: Homo sapiens, OVCAR-8, 48 h, OVCAR-8 cells. The protocol: as §1, §2, §3, §4

As a reminder, the GI50 is the concentration giving 50% growth inhibition. As to `C#Cc1ccc(C(=O)N2CCOCC2)cc1[N+](=O)[O-]` [Compound I-22, (4-ethynyl-3-nitrophenyl)(morpholin-4-yl)ketone], the values for the GI50 in assay [1] and in assay [2] were 6.53 µM and 13.4 µM, respectively. The “inhibitory effects on tumor cell proliferation (in words)” value (shortened to “inhibitory effects”) in the assay with 18 tumor cell strains is “have inhibitory effects on tumor cell proliferation”.
Take `C#Cc1ccc(C(=O)N(C)C)cc1[N+](=O)[O-]` [Compound I-10, N,N-dimethyl-4-ethynyl-3-nitrobenzamide]: the GI50 in assay [3] stood at 18.3 µM; in the assay with human leukemia HL-60, 3.78 µM; in assay [4], 24.1 µM; in assay [2], 12.3 µM. In addition, the “efficacy in inhibition of tumor cell proliferation, graded in words against I-1” value (from here on “efficacy in inhibition”) in the assay with 18 tumor cell strains is listed as “good effects on inhibition of tumor cell proliferation”. Moreover, in the assay with 18 tumor cell strains, the “inhibitory effects” value was “have inhibitory effects on tumor cell proliferation”.
With `C#Cc1ccc(C(=O)NC(=O)OCCCC)cc1[N+](=O)[O-]` [Compound I-5, N-butoxycarbonyl-4-ethynyl-3-nitrobenzamide], the values for the GI50 in assay [3], in assay [4] and in assay [2] were 17.9 µM, 20.1 µM and 10.1 µM, respectively. Also, in the assay with 18 tumor cell strains, the “efficacy in inhibition” value is “good effects on inhibition of tumor cell proliferation”. Further, the “inhibitory effects” value in the assay on 18 tumor cell strains is “have inhibitory effects on tumor cell proliferation”.
`C#Cc1ccc(C(=O)NC(=O)c2ccccc2)cc1[N+](=O)[O-]` [Compound I-13, N-benzoyl-4-ethynyl-3-nitrobenzamide] registered a 50% growth inhibitory concentration (GI50) in assay [1] of 6.24 µM. Also, the GI50 in assay [2] worked out at 25.3 µM. Moreover, in the assay on 18 tumor cell strains, the “efficacy in inhibition” value is reported as “good effects on inhibition of tumor cell proliferation” and the “inhibitory effects” value is given as “have inhibitory effects on tumor cell proliferation”.
Turning to `C#Cc1ccc(C(=O)NCCC)cc1[N+](=O)[O-]` [Compound I-18, N-propyl-4-ethynyl-3-nitrobenzamide], the GI50 in assay [3] was found to be 9.45 µM; in the assay with human leukemia HL-60, 4.86 µM; in assay [4], 7.09 µM; in assay [2], 6.29 µM. The “efficacy in inhibition” value in the assay on 18 tumor cell strains is given as “good effects on inhibition of tumor cell proliferation”. For the same molecule, in the assay with 18 tumor cell strains, the “inhibitory effects” value is “have inhibitory effects on tumor cell proliferation”.
As to `C#Cc1ccc(C(=O)N(CCCC)CCCC)cc1[N+](=O)[O-]` [Compound I-16, N,N-dibutyl-4-ethynyl-3-nitrobenzamide], the GI50 was 12.9 µM in assay [3], 1.27 µM with human leukemia HL-60, 15.5 µM in assay [4] and 8.21 µM in assay [2]. In addition, the “efficacy in inhibition” value in the assay on 18 tumor cell strains is on record as “good effects on inhibition of tumor cell proliferation”. Moreover, the “inhibitory effects” value in the assay with 18 tumor cell strains is recorded as “have inhibitory effects on tumor cell proliferation”.
`C#Cc1ccc(C(=O)NC)cc1[N+](=O)[O-]` [Compound I-9, N-methyl-4-ethynyl-3-nitrobenzamide]: the GI50 in assay [3] was found to be 22.5 µM; with human leukemia HL-60, 9.71 µM; in assay [4], 11.5 µM; in assay [2] it was 6.7 µM. Further, the “efficacy in inhibition” value with 18 tumor cell strains is “good effects on inhibition of tumor cell proliferation”. For the same molecule, the “inhibitory effects” value with 18 tumor cell strains was “have inhibitory effects on tumor cell proliferation”.
In assay [1], `C#Cc1ccc(C(=O)NC(=O)OCCC)cc1[N+](=O)[O-]` [Compound I-4, N-propoxycarbonyl-4-ethynyl-3-nitrobenzamide] registered a concentration for 50% growth inhibition (GI50) of 12.6 µM. Also, in the assay with 18 tumor cell strains, the “efficacy in inhibition” value is listed as “good effects on inhibition of tumor cell proliferation” and the “inhibitory effects” value is on record as “have inhibitory effects on tumor cell proliferation”.
Take `C#Cc1ccc(C(=O)NC(C)=O)cc1[N+](=O)[O-]` [Compound I-11, N-acetyl-4-ethynyl-3-nitrobenzamide]: the GI50 was found to be 12.1 µM in assay [3], 2.35 µM in the assay with human leukemia HL-60, 13.4 µM in assay [4] and 10.7 µM in assay [2]. Also, in the assay with 18 tumor cell strains, the “efficacy in inhibition” value is recorded as “good effects on inhibition of tumor cell proliferation”. Also, the “inhibitory effects” value in the assay with 18 tumor cell strains was “have inhibitory effects on tumor cell proliferation”.
Take `CNC(=O)c1ccc(C#N)c([N+](=O)[O-])c1` [Compound I-27, N-methyl-4-cyano-3-nitrobenzamide]: in assay [1], the concentration for 50% growth inhibition (GI50) was determined as 29.3 µM. For the same molecule, in assay [2], the GI50 came to 31.6 µM. Besides, in the assay with 18 tumor cell strains, the “efficacy in inhibition” value is “good effects on inhibition of tumor cell proliferation” and the “inhibitory effects” value is on record as “have inhibitory effects on tumor cell proliferation”.
As for `N#Cc1ccc(C(N)=O)cc1[N+](=O)[O-]` [Compound I-8, 4-cyano-3-nitrobenzamide], the GI50 in assay [3] came to 13 µM. Besides, it took 32.2 µM to inhibit growth in assay [1] by half (GI50). Also, in the assay with 18 tumor cell strains, the “efficacy in inhibition” value is listed as “good effects on inhibition of tumor cell proliferation” and the “inhibitory effects” value was “have inhibitory effects on tumor cell proliferation”.
In the case of `C#Cc1ccc(C(=O)NCCCC)cc1[N+](=O)[O-]` [Compound I-19, N-butyl-4-ethynyl-3-nitrobenzamide], the GI50 in assay [3] worked out at 9.01 µM; in the assay with human leukemia HL-60 it was 5.15 µM; in assay [4], 10.1 µM; in assay [2], 9.59 µM. Moreover, in the assay with 18 tumor cell strains, the “efficacy in inhibition” value is on record as “good effects on inhibition of tumor cell proliferation”. In addition, in the assay on 18 tumor cell strains, the “inhibitory effects” value is reported as “have inhibitory effects on tumor cell proliferation”.
Consider `C#Cc1ccc(C(N)=O)cc1N=O` [Compound I-28, 4-ethynyl-3-nitrosobenzamide], for which the GI50 in assay [5] came to 18.1 µM; in assay [6], 17.2 µM; in assay [2], 9.78 µM. The “efficacy in inhibition” value in the assay with 18 tumor cell strains was “good effects on inhibition of tumor cell proliferation”. Besides, the “inhibitory effects” value in the assay with 18 tumor cell strains is recorded as “have inhibitory effects on tumor cell proliferation”.
As to `C#Cc1ccc(C(=O)N2CCC2)cc1[N+](=O)[O-]` [Compound I-25], the GI50 in assay [3] is 10.9 µM; in assay [4], 27.7 µM; in assay [6], 14.4 µM; in assay [2], 9.5 µM.
In the assay with human leukemia HL-60, `CC#Cc1ccc(C(N)=O)cc1[N+](=O)[O-]` [Compound I-12, 4-(1-propynyl)-3-nitrobenzamide] showed a GI50 of 34.6 µM. Further, in the assay with 18 tumor cell strains, the “efficacy in inhibition” value is “good effects on inhibition of tumor cell proliferation” and the “inhibitory effects” value is given as “have inhibitory effects on tumor cell proliferation”.
